From patent US20100311585A1, “HERBICIDAL COMPOSITION AND METHOD OF USE THEREOF” (SYNGENTA CROP PROTECTION, INC., priority 2007, published 2010)

Key:
[1] = system: Medicago lupulina (black medic); assay: Glasshouse trial, control of black medic, post-emergence application; assay type: in vivo; settings: ethofumesate 210 g ai/ha plus mesotrione at 100 g ai/ha
Procedure: A glasshouse trial was carried out. Goosegrass seeds were sown into standard glasshouse potting mix (1:1 v/v Promix: Vero sand soil) contained in 10 cm square plastic pots. Treatments were replicated three times. Mesotrione (in the form Callisto® 480SE) was applied post-emergence to goosegrass (Eleusine indica) at either 100 g ai/ha or 200 g ai/ha with or without ethofumesate (in the form Prograss®). When used, ethofumesate was applied at a rate of 210 g ai/ha, 420 g ai/ha or 840 g ai/ha. The adjuvant system was X-77 at 0.1% v/v in deionised water. 200 litres of herbicide/adjuvant system was used per hectare. General weed control was evaluated at 7 and 14 days after treatment (DAT). It is noted that all herbicides were applied at reduced field rates because herbicide effects are magnified in a glasshouse environment. Rates were chosen to give a 50 to 70% level of control with herbicides applied alone as this allows for detection of any synergistic effect when tank mixtures are used. The results were evaluated using the Colby formula. The expected result for (A+B) is (A+B)−(A×B/100) where A and B are the ‘observed’ results for A and B on their own. […] A glasshouse trial was carried out as described in Example 1, except that Medicago lupulina (black medic) was used in place of goosegrass, and only one rate combination was tested.

[2] = system: goosegrass (Eleusine indica); assay: Glasshouse trial, control of goosegrass, post-emergence application; assay type: in vivo; parameters: key: % weed control; expected = A+B−(A×B/100) (Colby); settings: for Actual (weed control): X-77 0.1% v/v, * indicates synergy
Procedure: In the following tests, herbicides were applied at reduced field rates because herbicide effects are magnified in a glasshouse environment. The rates tested were selected to give between about 50 and 70% control with herbicides applied alone, so that any synergistic effect could be readily detected when testing mixtures. A glasshouse trial was carried out. Goosegrass seeds were sown into standard glasshouse potting mix (1:1 v/v Promix: Vero sand soil) contained in 10 cm square plastic pots. Treatments were replicated three times. Mesotrione (in the form Callisto® 480SE) was applied post-emergence to goosegrass (Eleusine indica) at either 100 g ai/ha or 200 g ai/ha with or without ethofumesate (in the form Prograss®). When used, ethofumesate was applied at a rate of 210 g ai/ha, 420 g ai/ha or 840 g ai/ha. The adjuvant system was X-77 at 0.1% v/v in deionised water. 200 litres of herbicide/adjuvant system was used per hectare. General weed control was evaluated at 7 and 14 days after treatment (DAT). It is noted that all herbicides were applied at reduced field rates because herbicide effects are magnified in a glasshouse environment. Rates were chosen to give a 50 to 70% level of control with herbicides applied alone as this allows for detection of any synergistic effect when tank mixtures are used. The results were evaluated using the Colby formula. The expected result for (A+B) is (A+B)−(A×B/100) where A and B are the ‘observed’ results for A and B on their own.

[3] = ethofumesate 210 g ai/ha plus mesotrione at 200 g ai/ha
[4] = ethofumesate 420 g ai/ha plus mesotrione at 100 g ai/ha
[5] = ethofumesate 420 g ai/ha plus mesotrione at 200 g ai/ha
[6] = ethofumesate 840 g ai/ha plus mesotrione at 100 g ai/ha
[7] = ethofumesate 840 g ai/ha plus mesotrione at 200 g ai/ha

CCOC1Oc2ccc(OS(C)(=O)=O)cc2C1(C)C (racemic) [Ethofumesate, (±)-2-ethoxy-2,3-dihydro-3,3-dimethylbenzofuran-5-yl methanesulfonate]
Expected (weed control, Colby formula) [1]: 85 | Actual (weed control) ([1]; * indicates synergy): 94* | Expected (weed control, Colby formula) [2, 3]: 30 | Actual (weed control) [2, 3]: 45* | Expected (weed control, Colby formula) [2, 4]: 25 | Actual (weed control) [2, 4]: 37* | Expected (weed control, Colby formula) [2, 5]: 30 | Actual (weed control) [2, 5]: 52* | Expected (weed control, Colby formula) [2, 6]: 25 | Actual (weed control) [2, 6]: 55* | Expected (weed control, Colby formula) [2, 7]: 30 | Actual (weed control) [2, 7]: 72*
